# Results reported in patent US20220288004A1, “TREATMENT AND PREVENTION OF AGING RELATED-DISEASE AND/OR AGING BY THE INHIBITION OF SPHINGOLIPIDS” (ECOLE POLYTECHNIQUE FEDERALE DE LAUSANNE (EPFL), priority 2019, published 2022).
# “Also recorded” adds a separate entry of the source.
# What was measured:
# aged C57Bl/6JRj mice [1] = assay: Muscle function tests (treadmill, aerobic capacity, grip strength, rotarod, crossbar) in aged mice; type: in vivo, mouse; details: myriocin 5 months vs DMSO
# Procedure: To examine whether a causal relationship could underlie the correlation between SphPC1 and muscle mass and function, it was tested whether inhibition of sphingolipid de novo biosynthesis pathway could protect against age-related muscle dysfunction. Aged (18-month-old) C57Bl/6JRj mice were treated for 5 months on chow diet with myriocin, a specific inhibitor of SPT, the first and rate-limiting enzyme of the sphingolipid de novo synthesis pathway, and whose expression in skeletal muscle was negatively correlated with muscular fitness in BXDs.
# Animals. Young (2-month-old) and aged (18-month-old) C57Bl/6JRj mice were purchased from Janvier Labs. EchoMRI measuring the fat and lean body mass, were measured before and after the treatment. The dose of myriocin was 0.4 mg/kg/3 times a week. Myriocin (Enzo Life Sciences, Farmingdale, N.Y.) was first dissolved in DMSO which was then mixed with PBS so that each mouse received 1.5 μL DMSO per injection. Animals were fed on a standard chow diet. All animals were housed in micro-isolator cages in a room illuminated from 7:00 AM to 7:00 PM with ad libitum access to diet and water. All the animal experiments are authorized by animal license 2890.1 and 3341 in Canton of Vaud, Switzerland.
# Endurance running test. The exercise regimen on a treadmill commenced at a speed of 9 cm/s. As the mice were aged, an inclination of 0 degrees was used. Mice were considered to be exhausted, and removed from the treadmill if they received 7 or more shocks (0.2 mA) per minute for two consecutive minutes. The distance traveled and time before exhaustion were registered as maximal running distance and time.
# Grip strength. Muscle strength was assessed by grip strength test. The grip strength of each mouse was measured on a pulldown grid assembly connected to a grip strength meter (Columbus Instruments). The mouse was drawn along a straight line parallel to the grip, providing peak force. The experiment was repeated three times, and the highest value was included in the analysis.
# Rotarod test. The rotarod test measures muscle strength, coordination, and endurance. Mice were left undisturbed in the room for 30 min. The speed of the rotating cylinder (rotarod) increased from 0 to 40 rpm in 5 min. Each mouse had 3 trials per day for 3 consecutive days. The latency and speed the mouse reached it passive rotation or fall from the rotor was recorded, and the latency and speed of the best trial of the second day is presented.
# Crossbar test. Crossbar test assesses active balance through the ability to balance while walking along an elevated beam to reach a dark end side where they are able hide. Since all the mice were easily able to cross a squared (3 cm) beam, and a circular beam of diameter 1.5 cm was too difficult to them, the latency was recorded to cross a circular beam of 3 cm. The mice were trained for one day before the actual trial was recorded, and the average of the latency of three trials per mouse is presented.
# [2] = system: quadriceps muscle of aged C57Bl/6JRj mice; assay: Quadriceps transcript profiling using RNA sequencing; type: in vivo, mouse; details: aged myriocin vs DMSO treated mice
# Procedure: To identify biological pathways whose modulation could explain improved muscle function upon myriocin treatment, transcriptomes of quadriceps muscle of aged myriocin and DMSO treated mice using RNA sequencing were compared. Gene set enrichment analysis (GSEA) ranking transcripts based on their fold change were performed.
# Quadriceps transcript profiling using RNA sequencing. Quadriceps muscles were collected and snap-frozen in liquid nitrogen from C57Bl/6JRj mice undergoing intraperitoneal myriocin treatment for 10 weeks on a chow diet starting at the age of 18 months. RNA was isolated using Direct-zol RNA kit (Zymo, Irvine, Calif.). RNA quality was assessed using Agilent 2100 BioAnalyzer (Agilent, Santa Clara, Calif.). Samples with RIN≥8, 28S/18S≥1.0, and c≥20 ng/μL were included in analyses. […] Sequencing libraries were prepared by BGI genomics using the DNBsea™ technology. Paired end sequencing with 100 cycles was performed using the BGISEQ-500 instrument. After removal of adaptor sequences and low quality reads, at least 56 million reads per sample was obtained. SOAPnuke was used to obtain clean reads (parameters -l 15, -q 0.2, -n 0.05). Reads were mapped using STAR aligner version 2.5.2b using the mouse GRCm38 genome assembly and the release 91 GTF annotation from Ensembl. Htseq-count version 0.6.0 was used to count the number of reads mapping to genes (mode=union, type=exon, idattr=gene_id). Transcript displaying higher expression than log 2(CPM+1)>0.5 in at least 3 samples were included in analyses. Differential gene expression analysis and expression normalization was performed using voom, ‘variance modeling at the observational level’, adjusting for sacrifice date. At individual gene level, no gene passed the multiple testing correction threshold. Benjamini-Hochberg correction for multiple testing was used. For gene set enrichment analysis using gene ontology (GO) categories, transcripts were ordered according to their log 2-transformed fold change, and 100,000 permutations were used. Adjusted p-value<0.05 was considered significant.
# aged C57Bl/6JRj mice [3] = assay: Novel object recognition in aged mice; type: in vivo, mouse
# Procedure: Novel Object Recognition. The novel object recognition task is used to assess recognition memory of mice. It is based on the natural tendency of rodents to explore a novel object by comparison to a familiar one. A habituation phase is realized to familiarize animals to the arena context. 24 hours later, during the acquisition phase (learning phase), two identical objects are placed in the arena and presented to the mouse. During the retention phase (3 hours following the acquisition phase), one of the two familiar objects is replaced by a novel one. Measures of duration and number of exploration for each object are realized, during both acquisition and retention phases, and a Recognition Index is calculated.
# [4] = system: APPSwe-expressing C2C12 myoblasts; assay: Proteostat staining of APPSwe-expressing C2C12 myoblasts; type: cell-based, mouse; details: 30 μM MYR for 24 h
# Procedure: FIG. 16. Quantitative Proteostat signal normalized over the number of cells in human primary myoblasts from IBM donors (above) and APPSwe-expressing C2C12 myoblasts (below) decreases after treatment with 30 μM MYR for 24 h. Values are expressed as mean±s.e.m. ***P:0.001; ****P:0.0001. Differences between two groups were assessed using Student's two-tailed t-tests (error bars: 95% confidence intervals).
smiles,measurement,setting,value
"CCCCCCC(=O)CCCCCCC=CCC(O)C(O)C(N)(CO)C(=O)O (stereo not shown) [myriocin, 2-Amino-3,4-dihydroxy-2-(hydroxymethyl)-14-oxoicos-6-enoic acid]",aerobic capacity (maximal oxygen consumption),aged C57Bl/6JRj mice [1],improved; also recorded: increased
same,crossing of a beam,aged C57Bl/6JRj mice [1],faster crossing
same,grip strength,aged C57Bl/6JRj mice [1],improved; also recorded: increased
same,performance in the rotarod test,aged C57Bl/6JRj mice [1],improved performance
same,running distance and time on a treadmill,aged C57Bl/6JRj mice [1],increased; also recorded: improved performance
same,speed reached before falling off the rotarod,aged C57Bl/6JRj mice [1],higher speed
same,expression of Pax7 in quadriceps muscle,[2],upregulated
same,most downregulated pathways (gene set enrichment analysis),[2]; quadriceps RNA-seq,lipid metabolism and inflammation
same,upregulated pathways (gene set enrichment analysis),[2]; quadriceps RNA-seq,muscle contraction and differentiation
same,Myog and Myf5 transcripts in skeletal muscle,[2]; quadriceps,upregulated
same,recognition index,aged C57Bl/6JRj mice [3]; myriocin 5 months vs DMSO,higher
same,time exploring novel object relative to familiar object,aged C57Bl/6JRj mice [3]; myriocin 5 months vs DMSO treated counterparts,more
same,Proteostat signal normalized over the number of cells,[4],decreases
